Kd, residence time and IC50 data for seven compounds are collected here from US11174250B2, “Substituted carboxamides as inhibitors of WDR5 protein-protein binding” (PROPELLON THERAPEUTICS INC., priority 2016, dated 2021).

Test [1] deals with WDR5 protein (Homo sapiens (Human), UniProt P61964). Description: Surface Plasmon Resonance (SPR) assay. The test is classed as binding. Particulars: SPR; for residence time: τ=1/koff, read-out: Residence Time (t, min).
For test [2], the target named is MLL1-WRAD2 complex (Homo sapiens (Human), UniProt P61964). In words: MLL1-WRAD2 enzyme assay (in vitro methyl transferase assay). Type of test: biochemical. The note with it: MLL1-WRAD2 assay; read-out: In vitro MLL1 activity (IC50). As to the method:
Reaction was initiated with 1 μM 3H-SAM and incubated for 1 hour at 30° C. Reaction mixture was transferred to P81 filter-paper and washed with PBS before detection.

Test [3] deals with MV4-11 cells. In words: Cell proliferation assay (ATPlite). The test is classed as cell-based. The note with it: Homo sapiens, MV4-11, 120 h; MV-411 cells, five days; read-out: In vitro whole cell potency in MV-411 cells, (IC50). As to the method:
MV4-11 cells were seeded into a 96-well plate at 1,000 cells/well in 150 μl medium (Alpha-MEM containing 10% FBS, 100 μg/ml Normocin, and 50 μg/ml Gentamycin, Invitrogen). A HP D300 digital dispenser was used to dose cells with DMSO or test compounds across a 10-point range of concentrations (high dose of 10 μM), and cultures were grown in a humidified 5% CO2 incubator at 37° C. After five days, plates were removed from incubator and equilibrated to room temperature. An equal volume of ATPlite assay reagent was added to each well, and samples were processed according to manufacturer's instructions (Perkin Elmer). Luminescent signal was measured using an Envision plate reader equipped with a US-Luminescence detector.
Background: Cellular ATP, detected with luciferase, serves as a proxy for viable cell number.

[4] abbreviates: Table 1, read-out: WDR5 binding affinity (KD).
The mark [5] stands for this setting: Table 2, read-out: WDR5 binding affinity SPR (KD).

Molecules are shown by their SMILES. Read-outs that look alike come from different tables or passages of the source.

Regarding `CN1CCN(c2ccc(-c3cc(CN4CCC(F)CC4)ccc3F)cc2NC(=O)c2c[nH]c(=O)cc2C(F)(F)F)CC1` [Example 73, N-(2′-fluoro-5′-((4-fluoropiperidin-1-yl)methyl)-4-(4-methylpiperazin-1-yl)-[1,1′-biphenyl]-3-yl)-6-oxo-4-(trifluoromethyl)-1,6-dihydropyridine-3-carboxamide], the Kd in test [1] (setting [4]) and in test [1] (setting [5]) was 4.2 nM in each case. The residence time in test [1] came out at 5.44 min. Further, the IC50 is 592 nM in test [2] and 502 nM in test [3].

As for `CN1CCN(c2ccc(-c3cc(CN4CCN(Cc5ccc(F)cc5)CC4)ccc3F)cc2NC(=O)c2c[nH]c(=O)cc2C(F)(F)F)CC1` [Example 68, N-(2′-fluoro-5′-((4-(4-fluorobenzyl)piperazin-1-yl)methyl)-4-(4-methylpiperazin-1-yl)-[,1′-biphenyl]-3-yl)-6-oxo-4-(trifluoromethyl)-1,6-dihydropyridine-3-carboxamide], the Kd in test [1] (setting [4]) and in test [1] (setting [5]) was 7.7 nM each time. Also, the residence time in test [1] came to 3.81 min. Further, the IC50 was 1890 nM in test [2] and 1790 nM in test [3].

Regarding `CN1CCN(c2ccc(-c3cc(CNC4CCOCC4)ccc3F)cc2NC(=O)c2c[nH]c(=O)cc2C(F)(F)F)CC1` [Example 37, N-(2′-fluoro-4-(4-methylpiperazin-1-yl)-5′-(((tetrahydro-2H-pyran-4-yl)amino)methyl)-[,1′-biphenyl]-3-yl)-6-oxo-4-(trifluoromethyl)-1,6-dihydropyridine-3-carboxamide], the Kd in test [1] (setting [4]) was 5 nM; in test [1] (setting [5]), 6 nM. Also, the residence time in test [1] came to 4.38 min. Further, the IC50 in test [2] worked out at 1300 nM; in test [3], 2910 nM.

Consider `CC1CN(c2ccc(-c3cc(CN4CCOCC4)ccc3F)cc2NC(=O)c2c[nH]c(=O)cc2C(F)(F)F)CCN1C` (centres unmarked) [Example 26, N-(4-(3,4-dimethylpiperazin-1-yl)-2′-fluoro-5′-(morpholinomethyl)-[1,1′-biphenyl]-3-yl)-6-hydroxy-4-(trifluoromethyl)nicotinamide], for which the Kd in test [1] (setting [4]) and in test [1] (setting [5]) was 9 nM each time. In addition, the residence time in test [1] is 3.07 min. Also, the IC50 in test [3] was 491 nM.

As for `CN1CCN(c2ccc(-c3cc(OC4CCOCC4)ncc3F)cc2NC(=O)c2c[nH]c(=O)cc2C(F)(F)F)CC1` [Example 31, N-(5-(5-fluoro-2-((tetrahydro-2H-pyran-4-yl)oxy)pyridin-4-yl)-2-(4-methylpiperazin-1-yl)phenyl)-6-oxo-4-(trifluoromethyl)-1,6-dihydropyridine-3-carboxamide], the Kd in test [1] (setting [4]) and in test [1] (setting [5]) was 9 nM each time. The residence time in test [1] stood at 5.76 min. The IC50 in test [2] came out at 1740 nM; in test [3], 1280 nM.

`CN1CCN(c2ccc(-c3cc(CN4CCOCC4)ccc3F)cc2NC(=O)c2c[nH]c(=O)cc2C(F)(F)F)CC1CO` (centres unmarked) [Example 65, N-(2′-fluoro-4-(3-(hydroxymethyl)-4-methylpiperazin-1-yl)-5′-(morpholinomethyl)-[1,1′-biphenyl]-3-yl)-6-oxo-4-(trifluoromethyl)-1,6-dihydropyridine-3-carboxamide]: the Kd in test [1] (setting [4]) and in test [1] (setting [5]) was 9.4 nM in each case. Further, the residence time in test [1] amounted to 9.93 min. In addition, the IC50 in test [2] worked out at 7300 nM.

For `C[C@@H]1CN(c2ccc(-c3c(F)ccc(CNC4CCCCC4)c3F)cc2NC(=O)c2c[nH]c(=O)cc2C(F)(F)F)C[C@H](C)N1C` [Example 114, N-(3′-((cyclohexylamino)methyl)-2′,6′-difluoro-4-((3S,5R)-3,4,5-trimethylpiperazin-1-yl)-[1,1′-biphenyl]-3-yl)-6-oxo-4-(trifluoromethyl)-1,6-dihydropyridine-3-carboxamide], the Kd in test [1] (setting [4]) and in test [1] (setting [5]) was 13 nM throughout. In addition, the residence time in test [1] was determined as 4.3 min. Further, the IC50 in test [2] came to 11100 nM.

In general, Kd refers to the equilibrium constant for the complex coming apart. Usually residence time stands for how long the partners stay bound on average. One may read the IC50 as the midpoint of a concentration-inhibition curve.
